Assay results reported in patent US20210393549A1, “New use of R-enantiomer of adrenergic beta 2 receptor agonists for treatment of inflammatory bowel disease and its extra intestinal manifestations” (priority 2018, published 2021).
Entries after “also recorded” stand apart in the source; their conditions may differ.

Legend:
[1] = system: knee joints (articular cartilage, meniscus); experiment: Damage of knee joints in DSS induced IBD mice; format: in vivo; details: compared with untreated DSS mice
Excerpt: In one embodiment, in DSS induced IBD mice, there was also a damage of knee joints. The articular cartilage structure became thinner and partially destroyed. The chondrocytes were degenerated, decreased and clustered. The meniscuses were damaged and lost its structural integrity. In X-ray, the layer of articular cartilage was thinner and bone structure was decreased. […] The articular cartilage and bone structure increased toward normal.

[2] = system: DNCB induced allergic contact dermatitis; experiment: DNCB induced allergic contact dermatitis model (eczema); format: in vivo, mice
Protocol: Mice was shaved at abdominal area DNCB (100 μL 0.5%) is dissolved and applied to the shaved skin to induce Atopica dermatitis for 2 consecutive days. At day 8th, DNCB was applied to both inner and outer surfaces of ears to induce eczema. Treatment of R-salbutamol and indomethacin were given orally at day 1st for consecutive 8 days. The mice were scarified at day 9th for examination and evaluation. Mice were divided into four groups (n=8), namely A, Control; B. Eczema (DNCB); C. Eczema plus R-Salbutamol of 0.05, 0.1 or 0.2 mg/kg; D. Eczema plus indomethacin of 5 mg/kg. The inflammation scores were evaluated according to swelling, erythema, scratch and thickness of both ears. [table]

[3] = system: TNBS-induced colitis; experiment: TNBS-induced colitis (model for Crohn's disease); format: in vivo, Male mice
Excerpt: Male mice colitis was induced by rectal co-administration of ethanol and TNBS (Trinitrobenzenesulfonic acid). Severe colitis in mice that was characterized by weight loss and diarrhea. Histologically there were loss of normal structures, visible discrete epithelioid granuloma, multiple erosive lesions, massive transmural inflammation infiltration of lymphocytes, and the loss of goblet cells. […] There was significant alleviation of lesions, few inflammatory infiltration with growing crypts and recovery mucosa epithelia along the column. […] In addition, in TNBS treated colitis mice, there were perianal symptoms: erythema, abscesses and ulcers found in some mice, which may lead to perianal fissures or fistulas. […] The therapeutically effects of R-salbuterol, R-clenbuterol and R-bambuterol on the symptoms in TNBS induced Crohn's disease has never been reported in prior art.

[4] = system: DSS induced sub-acute colitis; experiment: Prolonged (two weeks) treatment in DSS induced sub-acute colitis; format: in vivo, mice; details: evaluation at 23rd day, salbutamol 1 mg/kg, bambuterol 10 mg/kg
Excerpt: Same as example 2, except. 1), Two Weeks Treatment within a Three Weeks of Study
DSS was removed from drinking water at the end of 1st week. The treatments were started at 1st day for consecutive 14 days (2 weeks). Only drinking water given for the 3rd week. The evaluation and examination were made at 23rd day as did in example 1.

[5] = system: hemorrhoid inflammation symptoms; experiment: Hemorrhoid inflammation symptoms, oral or topical; format: in vivo; details: given either orally or topically
Excerpt: These perianal pathological changes somewhat similar to hemorrhoid inflammation symptoms. […] This new used of beta2 agonists in treatment of hemorrhoid inflammation symptoms has never been disclosed in prior art.

[6] = system: DSS induced acute colitis
Excerpt: In one embodiment, IBD was induced in mice by add DSS into drink water for 7 days. […] (Cooper, S. et al., Clinic pathologic study of dextran sulfate sodium experimental murine colitis, Laboratory Investigation, vol. 69, no. 2, p. 238-249, 1993)
The mice were scarified at day 10th for anatomy and histology evaluations. […] Each of the above histological features was scored individually and added together which is then collectively expressed as “histological score”, for quantitative evaluation (Cooper, S. et al., above).
Male C57BL mice (8-10 weeks, 18-20 g) were grouped into control (drinking water only), DSS and DSS plus treatment groups (n=5). Acute colitis was induced by feeding mice with 2% (w/v) dextran sulfate sodium (DSS) (molecular mass 36-50 kDa) added to the drinking water given ad libitum for 7 days. At the end of seventh day, DSS was removed and animals received only drinking water for 2 days. The animals were euthanized for anatomical and histological examination at the tenth day after DSS ingestion.
R-salbutamol (R-S) (1 mg/kg, S-salbutamol (S-S) (1 mg/kg), R-terbutaline (R-T) (1 mg/kg), S-terbutaline (S-T) (1 mg/kg), R-bambuterol (10 mg/kg), S-bambuterol (S-B) (10 mg/kg), R-clenbuterol (R-C) (1 mg/kg), RS-clenbuterol (RS-C) (2 mg/kg) were administered i.g. daily, starting from the 2nd day of DSS induction for consecutive 8 days. Dexamethasone (Dex), 1 mg/kg) was used as a reference drug.
Evaluation of disease symptoms and histological changes Disease activity index (DAI): Animals were monitored daily for weight, water/food consumption, morbidity, stool consistency and fecal blood. […] The colon length was recorded as an indicator of inflammation. The entire colon was cut open longitudinally and gently flushed with sterile phosphate-buffered saline (PBS) to remove any traces of feces for pathology preparation. Colon segments were fixed in 10% neutral buffered formalin. Tissues were embedded in paraffin, sectioned, mounted on slides. H&E-stained paraffin section images were acquired. Pathological evaluation was conducted in a blinded manner.
Histological Score: the scores were given as follows: epithelium, 0=normal morphology, 1=loss of goblet cells, 2=loss of goblet cells in large areas, 3=loss of crypts, and 4=loss of crypts in large areas; and inflammation cells infiltration, 0=no infiltrate, 1=infiltrate around the crypt basis, 2=infiltrate reaching the muscularis mucosae, 3=extensive infiltration reaching the muscularis mucosae and thickening of the mucosa with abundant edema, and 4=infiltration of the submucosa. Data were presented as mean±the standard deviation (SD).

[7] = oral 8 days, R-Salbutamol 0.05, 0.1 or 0.2 mg/kg, indomethacin 5 mg/kg
[8] = acute DSS colitis, compared with untreated DSS mice

SMILES: CC(C)(C)NC[C@H](O)c1ccc(O)c(CO)c1 [R-S, R-salbutamol]
- damage of articular cartilage, meniscus and bone structure of knee joints [1]: significantly ameliorated
- ear skin histopathology ([2]; R-Salbutamol 0.05 mg/kg): little effects on eczema
- ear skin histopathology ([2]; R-Salbutamol 0.1 mg/kg): significant reduced monocyte infiltration
- ear skin histopathology ([2]; R-salbutamol 0.2 mg/kg): further reductions in monocyte infiltration and epidermal keratinization
- erythema score of both ears [2, 7]: significantly alleviated or prevented
- thickness score of both ears [2, 7]: significantly alleviated or prevented
- eczema histology and inflammatory infiltration ([2]; oral 8 days, dose-dependent response, indomethacin 5 mg/kg): significantly improved
- perianal manifestations (erythema, abscesses, ulcers) ([3]; TNBS treated mice): significantly alleviated
- submucosa fibrosis and narrowing of intestinal lumen ([3]; TNBS treated mice): not seen; also recorded: significantly reduce the fibrosis and the narrowing of intestinal lumen
- weight loss, diarrhea, colon length versus normal control mice ([3]; oral administration): No significant different
- disease condition of TNBS colitis, in words ([3]; oral administration (R-enantiomers)): great ameliorated
- DAI, in words [4]: return toward normal
- histological score, in words [4]: return toward normal
- hemorrhoid inflammation symptoms [5]: significantly alleviated
- colon histology (H&E), in words ([6]; Example 1, compared with untreated DSS mice): greatly improved
- body weight, in words ([6]; acute DSS colitis): increased
- DAI, in words [6, 8]: significantly improved
- FOB, in words [6, 8]: reduced
- histological score, in words [6, 8]: significantly reduced
- length of colon-rector / shortening of large bowel, in words [6, 8]: shortening of large bowel was reduced
- Hist score (histological score) ([6]; epithelium 0-4 plus infiltration 0-4, tenth day, 1 mg/kg (R-B, S-B 10 mg/kg; RS-C 2 mg/kg), mean ± SD): 4 ± 0.5
- FOB (fecal occult blood) ([6]; grade 0, 2, 4, i.g. daily 8 days, 1 mg/kg (R-B, S-B 10 mg/kg; RS-C 2 mg/kg), mean ± SD): 0.5 ± 0.5
- Weight ([6]; i.g. daily 8 days, 1 mg/kg (R-B, S-B 10 mg/kg; RS-C 2 mg/kg), mean ± SD): 93 ± 2.8
- DAI (disease active index) ([6]; score 0 to 12, i.g. daily 8 days from 2nd day of DSS, 1 mg/kg (R-B, S-B 10 mg/kg; RS-C 2 mg/kg), n=5): 4
- Col Length (colon length) ([6]; tenth day, i.g. daily 8 days, 1 mg/kg (R-B, S-B 10 mg/kg; RS-C 2 mg/kg), mean ± SD): 7.7 ± 0.6
